Columns and labels:
Assay type in all cases: cell-based, human
H520 = assay: relative growth in dropout media (XTT / CellTiter-Glo); details: for relative growth: three days
Method: (§1) To establish the screening assay for the nutritional weakness of cancer cells, 5 human blood cancer cell lines, 4 human lung cancer cell lines, 1 human colon cancer cell line, 1 human liver cancer cell line, 5 human breast cancer cell lines, and 3 human prostate cancer cell lines were used (Table 1). All 19 cell lines were cultured in reconstituted complementary RPM11640 based media R-comp (Table 2) for more than 10 days before screening assays.
(§2) To test for nutritional weaknesses of cancer cell lines or primary cancer cells, each individual non-essential amino acid was dropped out from the R-comp media (Table 2). Multiple amino acid dropout media was used to test combinatorial effects. Prior to the experiments, cells were first acclimated in R-comp media, and then harvested and washed in EBSS solution. The cell density was adjusted to 1-3×10^5 cells/ml before adding to equal volumes of 2× dropout media plus 2× R-comp (positive control) in a 96-well plate. The plates were then placed in an incubator set at 37° C. with a 5% CO2 supply. Five technical replicates were used for each medium treatment. For each cell line, at least three biological replicates were performed with 2 time-points (day 1 and day 3).
(§3) Cell growth was analyzed with two cell viability methods (XTT and CellTiter-Glo-based assays). In the XTT-based assay, cell growth is measured by absorbance at 450 nm after adding the XTT reagent to each culture and incubating under the same culture conditions for 2 hours according to the manufacturer's instructions (ThermoFisher X6493). Absorption at 690 nm was also measured as background and subtracted from absorption at 450 nm. In the CellTiter-Glo-based assay (Promega, G7572), cell growth is measured by luminescence with a dwelling time of 200 milliseconds on a Tecan plate reader.
(§4) The relative growth is calculated with the following equation: Growth %=(readingdropout−average(readingsblank))/(average(readingsR-comp)−average(readingsblank))×100%

H661 = assay: as above; details: for relative growth: three days; for relief of suppressed growth by augmented supplementation (in words): cystine and tyrosine dropouts, 20 times
Method: as §1, §2, §3, §4

H69 = assay: as above; details: for relative growth: three days
Method: as §1, §2, §3, §4

K562 = assay: as above; details: for relative growth: —Cys, three days, CellTiter-Glo
Method: as §1, §2, §3, §4

GA10 = assay: as above
Method: as §1, §2, §3, §4

H1437 = assay: as above
Method: as §1, §2, §3, §4

Jurkat = assay: as above
Method: as §1, §2, §3, §4

HCT116 = assay: as above; details: for growth with vitamin supplementation in the absence of cystine (in words): 50×
Method: as §1, §2, §3, §4

U937 = assay: as above; details: for relief of suppressed growth by augmented supplementation (in words): cystine and tyrosine dropouts, 20 times
Method: as §1, §2, §3, §4

cancer cell lines = assay: growth assay in dropout media, cancer cell lines as a group; details: up to 50× strength; cell lines sensitive to cystine dropout
Method: as §1
To test for nutritional weaknesses of cancer cell lines or primary cancer cells, each individual non-essential amino acid was dropped out from the R-comp media (Table 2). Multiple amino acid dropout media was used to test combinatorial effects. Prior to the experiments, cells were first acclimated in R-comp media, and then harvested and washed in EBSS solution. […]
as §3, with “reader. […]” for “reader.”

HCC1187 = assay: relative growth in dropout media (XTT / CellTiter-Glo); details: —Cys (5x Met), vitamin supplementation 50x, three days, Cell-Titer-Glo
Method: as §1, §2, §3, §4

HCC1599 = assay: as above
Method: as §1, §2, §3, §4

MDA-MB-453 = assay: as above
Method: as §1, §2, §3, §4

C4-28 = assay: as above; details: —Cys (5x Met), vitamin supplementation 50x, three days, Cell-Titer-Glo
Method: as §1, §2, §3, §4

HCC70 = assay: as above; details: —Cys (5x Met), vitamin supplementation 50x, three days, Cell-Titer-Glo
Method: as §1, §2, §3, §4

HL60 = assay: as above; details: —Cys (5x Met), vitamin supplementation 50x, three days, Cell-Titer-Glo
Method: as §1, §2, §3, §4

HepG2 = assay: as above; details: —Cys (5x Met), vitamin supplementation 50x, three days, Cell-Titer-Glo
Method: as §1, §2, §3, §4

MDA-MB-231 = assay: as above; details: —Cys (5x Met), vitamin supplementation 50x, three days, Cell-Titer-Glo
Method: as §1, §2, §3, §4

PC-3 = assay: as above; details: —Cys (5x Met), vitamin supplementation 50x, three days, Cell-Titer-Glo
Method: as §1, §2, §3, §4

VCaP = assay: as above; details: —Cys (5x Met), vitamin supplementation 50x, three days, Cell-Titer-Glo
Method: as §1, §2, §3, §4

[1] = 0.1× level of cystine supplementation
[2] = —Cys, +Cys 0.01x (5x Met), CellTiter-Glo
[3] = —Cys, +Cys 0.02x (5x Met), CellTiter-Glo
[4] = —Cys, +Cys 0.05x (5x Met), CellTiter-Glo
[5] = —Cys, +Cys 0.1x (5x Met), CellTiter-Glo
[6] = —Cys, +Cys 0.5x (5x Met), CellTiter-Glo
[7] = —Cys, +Glut 2.5x, CellTiter-Glo
[8] = —Cys, +Glut 100x, CellTiter-Glo
[9] = —Cys (5x Met), vitamin supplementation 50x, Cell-Titer-Glo
[10] = —Cys (5x Met), vitamin supplementation 50x, three days, Cell-Titer-Glo

## N[C@@H](CSSC[C@H](N)C(=O)O)C(=O)O [+Cys (5x Met), cystine]
H520; [1]
  restoration of growth by adding back cystine (in words): merely restored
H520; [2]
  relative growth: 5.2%
H520; [3]
  relative growth: 4.7%
H520; [4]
  relative growth: 9.4%
H520; [5]
  relative growth: 41.8%
H520; [6]
  relative growth: 110.4%
H661; [2]
  relative growth: 0.1%
H661; [3]
  relative growth: 0.1%
H661; [4]
  relative growth: 0.1%
H661; [5]
  relative growth: 0.1%
H661; [6]
  relative growth: 103.2%
H69; [2]
  relative growth: 1.2%
H69; [3]
  relative growth: 1.3%
H69; [4]
  relative growth: 1.2%
H69; [5]
  relative growth: 2.1%
H69; [6]
  relative growth: 51.8%
K562; [1]
  restoration of growth by adding back cystine (in words): substantially restored to the levels of the control
K562; +Cys 0.01x (5x Met)
  relative growth: 1.9%
K562; +Cys 0.02x (5x Met)
  relative growth: 2.2%
K562; +Cys 0.05x (5x Met)
  relative growth: 9.5%
K562; +Cys 0.1x (5x Met)
  relative growth: 36.5%
K562; +Cys 0.5x (5x Met)
  relative growth: 101.5%

## N[C@@H](CCC(=O)N[C@@H](CS)C(=O)NCC(=O)O)C(=O)O [+Glut, glutathione]
GA10; 10× supplementation
  restoration of growth suppressed by cystine dropout (in words): not significantly
H1437; 10× supplementation
  restoration of growth suppressed by cystine dropout (in words): substantially restored the suppressed growth
H520; [7]
  relative growth: 21.3%
H520; —Cys, +Glut 10x, CellTiter-Glo
  relative growth: 71.3%
H520; —Cys, +Glut 50x, CellTiter-Glo
  relative growth: 97.8%
H520; [8]
  relative growth: 105.7%
H661; [7]
  relative growth: 0.2%
H661; —Cys, +Glut 10x, CellTiter-Glo
  relative growth: 13.0%
H661; —Cys, +Glut 50x, CellTiter-Glo
  relative growth: 75.4%
H661; [8]
  relative growth: 41.1%
H69; 10× supplementation
  restoration of growth suppressed by cystine dropout (in words): not significantly
H69; [7]
  relative growth: 1.4%
H69; —Cys, +Glut 10x, CellTiter-Glo
  relative growth: 2.1%
H69; —Cys, +Glut 50x, CellTiter-Glo
  relative growth: 3.6%
H69; [8]
  relative growth: 2.8%
Jurkat; 10× supplementation
  restoration of growth suppressed by cystine dropout (in words): substantially restored the suppressed growth
K562; +Glut 2.5x
  relative growth: 16.2%
K562; +Glut 10x
  relative growth: 78.8%
K562; +Glut 50x
  relative growth: 84.4%
K562; +Glut 100x
  relative growth: 98.9%

## CSCC[C@H](N)C(=O)O [+Met, methionine]
H520; —Cys, +Met 10x, CellTiter-Glo
  relative growth: 7.3%
H520; —Cys, +Met 50x, CellTiter-Glo
  relative growth: 16.7%
H661
  relief of suppressed growth by augmented supplementation (in words): not brought back
H661; —Cys, +Met 10x, CellTiter-Glo
  relative growth: 0.1%
H661; —Cys, +Met 50x, CellTiter-Glo
  relative growth: 0.1%
H69; —Cys, +Met 10x, CellTiter-Glo
  relative growth: 1.2%
H69; —Cys, +Met 50x, CellTiter-Glo
  relative growth: 1.2%
HCT116; 10×
  restoration of growth in the absence of cystine (in words): substantially restore HCT116 growth
K562; +Met 10x
  relative growth: 1.6%
K562; +Met 50x
  relative growth: 1.1%
U937
  relief of suppressed growth by augmented supplementation (in words): not brought back
Cancer cell lines
  promotion of growth under cystine dropout (in words): failed to promote the growth

## Cc1ncc(C[n+]2csc(CCO)c2C)c(N)n1 [B1, thiamine]
H520; [9]
  relative growth: 0.5%
H661; [9]
  relative growth: 1.5%
H69; [9]
  relative growth: 5.8%
HCC1187
  relative growth: 6.2%
HCC1599
  growth with vitamin supplementation in the absence of cystine (in words): substantially restored
HCT116
  growth with vitamin supplementation in the absence of cystine (in words): largely restored
MDA-MB-453; 50×
  growth with vitamin supplementation in the absence of cystine (in words): growth was promoted

## Cc1cc2nc3c(=O)[nH]c(=O)nc-3n(C[C@H](O)[C@H](O)[C@H](O)CO)c2cc1C [B2, riboflavin]
H520; [9]
  relative growth: 0.3%
H661; [9]
  relative growth: 0.2%
H69; [9]
  relative growth: 5.0%
HCC1187
  relative growth: 1.0%
HCT116
  growth with vitamin supplementation in the absence of cystine (in words): even more drastic growth suppression

## NC(=O)c1cccnc1 [B3, niacinamide]
H520; [9]
  relative growth: 0.3%
H661; [9]
  relative growth: 0.2%
H69; [9]
  relative growth: 5.3%
HCC1187
  relative growth: 3.4%

## Cc1ncc(CO)c(CO)c1O [B6, pyridoxine]
H520; [9]
  relative growth: 0.2%
H661; [9]
  relative growth: 0.9%
H69; [9]
  relative growth: 5.2%
HCC1187
  relative growth: 2.2%

## O=C(O)CCCC[C@@H]1SC[C@@H]2NC(=O)N[C@@H]21 [B7, biotin]
H520; [9]
  relative growth: 0.2%
H661; [9]
  relative growth: 0.2%
H69; [9]
  relative growth: 5.7%
HCC1187
  relative growth: 5.8%

## N[C@@H](Cc1ccccc1)C(=O)O [phenylalanine]
H661
  relief of suppressed growth by augmented supplementation (in words): not brought back
U937
  relief of suppressed growth by augmented supplementation (in words): not brought back

## calcium pantothenate [B5]
C4-28
  relative growth: 0.2%
GA10; [10]
  relative growth: 4.3%
H1437; [10]
  relative growth: 0.5%
H520; [9]
  relative growth: 0.3%
H661; [9]
  relative growth: 0.2%
H69; [9]
  relative growth: 5.5%
HCC1187
  relative growth: 0.0%
HCC1599; [10]
  relative growth: 4.9%
HCC70
  relative growth: 0.9%
HCT116; [10]
  relative growth: 56.4%
HL60
  relative growth: 0.1%
HepG2
  relative growth: 1.4%
Jurkat; [10]
  relative growth: 0.3%
MDA-MB-231
  relative growth: 0.2%
MDA-MB-453; [10]
  relative growth: 104.4%
PC-3
  relative growth: 0.8%
U937; [10]
  relative growth: 0.0%
VCaP
  relative growth: 0.1%

— patent US10973251B1, “Nutritional treatment for cancer” (The Board of Trustees of the Leland Stanford Junior …, priority 2015, dated 2021)
